Values of other authors, collected in US20150127309A1, “Method To Translate Biodynamic Spectrograms Into High-Content Information” (Purdue Research Foundation, priority 2013, published 2015).

Experiments:
[1] = ref [78]
three Raf isoforms = conditions: in serum; refs [75-77]

CCCS(=O)(=O)Nc1ccc(F)c(C(=O)c2c[nH]c3ncc(-c4ccc(Cl)cc4)cc23)c1F [PLX4032]
toxicity [1]: minimal toxicity | tolerated serum levels ([1]; serum): up to 50 μM | activity against Raf isoforms (three Raf isoforms): active against three Raf isoforms at nanomolar concentrations
